# Results taken from US12077503B2, “Substituted cyclic amides and their use as herbicides” (FMC CORPORATION, priority 2015, dated 2024).
# Read-outs that look alike come from different tables or passages of the source.
# Key:
# Format in all cases: in vivo
# corn (Zea mays) = assay: Test A postemergence; details: Zea mays, post-emergence, 240 h; for plant injury at 125 g/ha / plant injury at 500 g/ha: postemergence; for plant injury at 125 g/ha: visual injury vs untreated controls after approx. 10 d, 0 = no effect, 100 = complete control, read-out: Corn plant response rating (0 to 100 scale); for plant injury at 500 g/ha: 500 g ai/ha, 0 to 100 scale, 0 is no effect, 100 is complete control, read-out: Corn plant response rating
# Summary of the method: (§1)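 Preemergence directed soil spray on seeded pots, or postemergence application to plants 2–10 cm, one- to two-leaf. Solvent mixture non-phytotoxic, with surfactant. Scored ~10 d later, visually, 0–100 vs untreated.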
# [1] = system: ragweed (common ragweed, Ambrosia elatior); assay: Test A postemergence; details: Ambrosia artemisiifolia, post-emergence, 240 h; for pest or weed control at 125 g/ha: 125 g ai/ha; for pest or weed control at 500 g/ha: 500 g ai/ha, 0 to 100 scale, 0 is no effect, 100 is complete control, read-out: Ragweed plant response rating
# Summary of the method: as §1
# [2] = system: pigweed (Amaranthus retroflexus); assay: Test A postemergence; details: Amaranthus retroflexus, post-emergence, 240 h; for pest or weed control at 125 g/ha: 125 g ai/ha; for pest or weed control at 500 g/ha: 500 g ai/ha, 0 to 100 scale, 0 is no effect, 100 is complete control, read-out: Pigweed plant response rating
# Summary of the method: as §1
# [3] = system: ryegrass, Italian (Italian ryegrass, Lolium multiflorum); assay: Test A postemergence; details: Lolium multiflorum, post-emergence, 240 h; for pest or weed control at 125 g/ha: 125 g ai/ha; for pest or weed control at 500 g/ha: 500 g ai/ha, 0 to 100 scale, 0 is no effect, 100 is complete control, read-out: Ryegrass, Italian plant response rating
# Summary of the method: as §1
# [4] = system: wheat (Triticum aestivum); assay: Test A postemergence; details: Triticum aestivum, post-emergence, 240 h; for plant injury at 125 g/ha: 125 g ai/ha; for plant injury at 500 g/ha: 500 g ai/ha, 0 to 100 scale, 0 is no effect, 100 is complete control, read-out: Wheat plant response rating
# Summary of the method: as §1
# [5] = system: Galium (catchweed bedstraw, Galium aparine); assay: Test A postemergence; details: Galium, post-emergence, 240 h; for pest or weed control at 125 g/ha: 125 g ai/ha; for pest or weed control at 500 g/ha: 500 g ai/ha, 0 to 100 scale, 0 is no effect, 100 is complete control, read-out: Galium plant response rating
# Summary of the method: as §1
# Kochia (Kochia scoparia) [6] = assay: Test A postemergence; details: Bassia scoparia, post-emergence, 240 h; for pest or weed control at 125 g/ha: 125 g ai/ha; for pest or weed control at 500 g/ha: 500 g ai/ha, 0 to 100 scale, 0 is no effect, 100 is complete control, read-out: Kochia plant response rating
# Summary of the method: as §1
# [7] = system: giant foxtail (Setaria faberii); assay: Test A postemergence; details: Setaria faberi, post-emergence, 240 h; for pest or weed control at 125 g/ha: 125 g ai/ha; for pest or weed control at 500 g/ha: 500 g ai/ha, 0 to 100 scale, 0 is no effect, 100 is complete control, read-out: Foxtail, Giant plant response rating
# Summary of the method: as §1
# [8] = system: barnyardgrass (Echinochloa crus-galli); assay: Test A postemergence; details: Echinochloa crus-galli, post-emergence, 240 h; for pest or weed control at 125 g/ha: 125 g ai/ha; for pest or weed control at 500 g/ha: 500 g ai/ha, 0 to 100 scale, 0 is no effect, 100 is complete control, read-out: Barnyardgrass plant response rating
# Summary of the method: as §1
# [9] = system: blackgrass (Alopecurus myosuroides); assay: Test A postemergence; details: Alopecurus myosuroides, post-emergence, 240 h; for pest or weed control at 125 g/ha: 125 g ai/ha; for pest or weed control at 500 g/ha: 500 g ai/ha, 0 to 100 scale, 0 is no effect, 100 is complete control, read-out: Blackgrass plant response rating
# Summary of the method: as §1
# rice (Oryra sativa) = assay: Test B flooded paddy test; details: Oryza sativa, 250 g ai/ha, Flood, read-out: Rice plant response rating
# Summary of the method: (§2)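 Evaluation by eye, against controls, occurred 13–15 d post-treatment in a greenhouse, using a 0 (no effect) to 100 (complete control) scale. Application was into the paddy water, 3 cm deep over the soil, on 2-leaf plants.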
# [10] = system: ducksalad (Heteranthera limosa); assay: Test B flooded paddy test; details: Heteranthera limosa, 250 g ai/ha, Flood, read-out: Ducksalad plant response rating
# Summary of the method: as §2
# [11] = system: sedge, umbrella (small-flower umbrella sedge, Cyperus difformis); assay: Test B flooded paddy test; details: Cyperus difformis, 250 g ai/ha, Flood, read-out: Sedge, Umbrella plant response rating
# Summary of the method: as §2
# [12] = system: barnyardgrass (Echinochloa crus-galli); assay: Test B flooded paddy test; details: Echinochloa crus-galli, 250 g ai/ha, Flood, read-out: Barnyardgrass plant response rating
# Summary of the method: as §2
# Kochia (Kochia scoparia) [13] = assay: Test A preemergence; details: Bassia scoparia, pre-emergence, 240 h; for pest or weed control at 125 g/ha: 125 g ai/ha; for pest or weed control at 500 g/ha: 500 g ai/ha
# Summary of the method: as §1
# [14] = postemergence, visual injury vs untreated controls after approx. 10 d, 0 = no effect, 100 = complete control, read-out: Ragweed plant response rating (0 to 100 scale)
# [15] = postemergence, visual injury vs untreated controls after approx. 10 d, 0 = no effect, 100 = complete control, read-out: Pigweed plant response rating (0 to 100 scale)
# [16] = postemergence, visual injury vs untreated controls after approx. 10 d, 0 = no effect, 100 = complete control, read-out: Ryegrass, Italian plant response rating (0 to 100 scale)
# [17] = postemergence, visual injury vs untreated controls after approx. 10 d, 0 = no effect, 100 = complete control, read-out: Wheat plant response rating (0 to 100 scale)
# [18] = postemergence, visual injury vs untreated controls after approx. 10 d, 0 = no effect, 100 = complete control, read-out: Galium plant response rating (0 to 100 scale)
# [19] = postemergence, visual injury vs untreated controls after approx. 10 d, 0 = no effect, 100 = complete control, read-out: Kochia plant response rating (0 to 100 scale)
# [20] = postemergence, visual injury vs untreated controls after approx. 10 d, 0 = no effect, 100 = complete control, read-out: Foxtail, Giant plant response rating (0 to 100 scale)
# [21] = postemergence, visual injury vs untreated controls after approx. 10 d, 0 = no effect, 100 = complete control, read-out: Barnyardgrass plant response rating (0 to 100 scale)
# [22] = postemergence, visual injury vs untreated controls after approx. 10 d, 0 = no effect, 100 = complete control, read-out: Blackgrass plant response rating (0 to 100 scale)
# [23] = 0 to 100 scale where 0 is no effect and 100 is complete control
# [24] = preemergence, visual injury rating, 0 to 100 scale where 0 is no effect and 100 is complete control, approximately 10 d, read-out: Kochia plant response rating
# [25] = preemergence, 0 to 100 scale where 0 is no effect and 100 is complete control, read-out: Kochia plant response rating
# [26] = scale of 0 to 100 where 0 is no effect and 100 is complete control
Compound,plant injury at 125 g/ha (corn (Zea mays); 125 g ai/ha),plant injury at 500 g/ha (corn (Zea mays)),"pest or weed control at 125 g/ha [1, 14]",pest or weed control at 500 g/ha ([1]; postemergence),"pest or weed control at 125 g/ha [2, 15]",pest or weed control at 500 g/ha ([2]; postemergence),"pest or weed control at 125 g/ha [3, 16]",pest or weed control at 500 g/ha ([3]; postemergence),"plant injury at 125 g/ha [4, 17]",plant injury at 500 g/ha ([4]; postemergence),"pest or weed control at 125 g/ha [5, 18]",pest or weed control at 500 g/ha ([5]; postemergence),pest or weed control at 125 g/ha (Kochia (Kochia scoparia) [6]; [19]),pest or weed control at 500 g/ha (Kochia (Kochia scoparia) [6]; postemergence),"pest or weed control at 125 g/ha [7, 20]",pest or weed control at 500 g/ha ([7]; postemergence),"pest or weed control at 125 g/ha [8, 21]",pest or weed control at 500 g/ha ([8]; postemergence),"pest or weed control at 125 g/ha [9, 22]",pest or weed control at 500 g/ha ([9]; postemergence),also measured
CN1CC[C@H](c2ccc(C(F)(F)F)cc2)[C@@H](C(=O)Nc2cccc(Cl)c2F)C1=O [Compound 1228],20%,70%,0%,0%,20%,50%,0%,30%,0%,30%,20%,60%,60%,60%,80%,80%,90%,90%,0%,40%,"pest or weed control at 250 g/ha (rice (Oryra sativa); [23]): 30%; pest or weed control at 250 g/ha [10, 23]: 100%; pest or weed control at 250 g/ha [11, 23]: 0%; pest or weed control at 250 g/ha [12, 23]: 50%; pest or weed control at 125 g/ha (Kochia (Kochia scoparia) [13]; [24]): 0%; pest or weed control at 500 g/ha (Kochia (Kochia scoparia) [13]; [25]): 0%"
COc1c(F)ccc([C@H]2CNC(=O)[C@@H]2C(=O)Nc2ccccc2S(C)(=O)=O)c1Cl [Compound 916],–,–,–,–,–,–,–,–,–,–,–,–,–,–,–,–,–,–,–,–,"Corn plant response rating (crop injury, 0 = no effect, 100 = complete kill) at 125 g/ha (corn (Zea mays); 125 g ai/ha, Postemergence, visual injury after approximately 10 d, 0 to 100 scale where 0 is no effect and 100 is complete control): 0%; pest or weed control at 125 g/ha ([1]; Postemergence, visual injury after approximately 10 d, 0 to 100 scale where 0 is no effect and 100 is complete control, read-out: Plant response rating, Ragweed): 0%; pest or weed control at 125 g/ha ([2]; Postemergence, visual injury after approximately 10 d, 0 to 100 scale where 0 is no effect and 100 is complete control, read-out: Plant response rating, Pigweed): 0%; pest or weed control at 125 g/ha ([3]; Postemergence, visual injury after approximately 10 d, 0 to 100 scale where 0 is no effect and 100 is complete control, read-out: Plant response rating, Ryegrass, Italian): 0%; plant injury at 125 g/ha ([4]; Postemergence, visual injury after approximately 10 d, 0 to 100 scale where 0 is no effect and 100 is complete control, read-out: Plant response rating, Wheat): 0%; pest or weed control at 125 g/ha ([5]; Postemergence, visual injury after approximately 10 d, 0 to 100 scale where 0 is no effect and 100 is complete control, read-out: Plant response rating, Galium): 30%; pest or weed control at 125 g/ha (Kochia (Kochia scoparia) [6]; Postemergence, visual injury after approximately 10 d, 0 to 100 scale where 0 is no effect and 100 is complete control, read-out: Plant response rating, Kochia): 0%; pest or weed control at 125 g/ha ([7]; Postemergence, visual injury after approximately 10 d, 0 to 100 scale where 0 is no effect and 100 is complete control, read-out: Plant response rating, Foxtail, Giant): 0%; pest or weed control at 125 g/ha ([8]; Postemergence, visual injury after approximately 10 d, 0 to 100 scale where 0 is no effect and 100 is complete control, read-out: Plant response rating, Barnyardgrass): 30%; pest or weed control at 125 g/ha ([9]; Postemergence, visual injury after approximately 10 d, 0 to 100 scale where 0 is no effect and 100 is complete control, read-out: Plant response rating, Blackgrass): 0%; pest or weed control at 250 g/ha (rice (Oryra sativa); [26]): 0%; pest or weed control at 250 g/ha [10, 26]: 100%; pest or weed control at 250 g/ha [11, 26]: 0%; pest or weed control at 250 g/ha [12, 26]: 0%; pest or weed control at 125 g/ha (Kochia (Kochia scoparia) [13]; [25]): 40%; pest or weed control at 500 g/ha (Kochia (Kochia scoparia) [13]; Preemergence, visual injury vs untreated controls after approximately 10 d, read-out: Kochia plant response rating (0 to 100 scale where 0 is no effect and 100 is complete control)): 60%"
Cc1cc([C@H]2CN(C)C(=O)[C@@H]2C(=O)Nc2cccc(F)c2F)on1 [Compound 1196],0%,0%,0%,0%,0%,0%,0%,0%,0%,0%,0%,0%,0%,0%,30%,80%,70%,90%,0%,0%,"pest or weed control at 250 g/ha (rice (Oryra sativa); [23]): 0%; pest or weed control at 250 g/ha [10, 23]: 30%; pest or weed control at 250 g/ha [11, 23]: 0%; pest or weed control at 250 g/ha [12, 23]: 0%; pest or weed control at 125 g/ha (Kochia (Kochia scoparia) [13]; [24]): 0%; pest or weed control at 500 g/ha (Kochia (Kochia scoparia) [13]; [25]): 0%"
